Assay results taken from the supplement of paper PMC10307832.

Compound: O=C(/C=C/c1ccccc1)NC(NC(=S)Nc1cccc2cccnc12)C(Cl)(Cl)Cl [Salubrinal] + COc1cc2c(Oc3ccc(NC(=O)C4(C(=O)Nc5ccc(F)cc5)CC4)cc3F)ccnc2cc1OCCCN1CCOCC1 [Foretinib] (partner 0.25 µM)
Experiment: relative viability (nuclei count vs DMSO), 5 days (fraction); higher = more cells survive
Settings: first compound 0.08 µM
Procedure, shortened: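 The day after seeding in 1536-well plates, lung cancer cell lines were treated by pin tool with a single drug, or with a fixed anchor-drug dose together with five library-drug doses (not always all listed) in √10 steps. After 5 days, a combined fix-and-stain solution (final 0.05% Triton X-100, 1% formaldehyde, 1 ug/ml Hoechst) was added. Nuclei counted on 4× images gave relative viability as treated counts over vehicle counts, reported as the median of duplicate plates.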

| Cell Line | relative viability |
| --- | --- |
| H3255 | 0.898 |
| COR-L23 | 1.1 |
| COR-L 105 | 0.981 |
| IA-LM | 1.21 |
| LOU-NH91 | 0.948 |
| ChaGo-K-1 | 0.989 |
| NCI-H1793 | 0.879 |
| A549 | 1.01 |
| SW 900 | 0.78 |
| NCI-H661 | 0.996 |
| NCI-H1299 | 1.12 |
| NCI-H1623 | 0.735 |
| NCI-H1563 | 0.952 |
| ABC-1 | 1.15 |
| NCI-H650 | 1.06 |

Same assay, conditions: first compound 0.253 µM

| Cell Line | relative viability |
| --- | --- |
| NCI-H2342 | 1.04 |
| NCI-H727 | 0.856 |
| NCI-H1650 | 1.02 |
| EBC-1 | 0.0951 |
| NCI-H1703 | 0.459 |
| NCI-H1993 | 0.767 |
| SW 1573 | 0.719 |
| NCI-H838 | 1.11 |
| LCLC-103H | 0.687 |
| NCI-H520 | 0.798 |
| NCI-H2126 | 1.13 |
| EMC-BAC-2 | 1 |
| NCI-H2085 | 0.793 |
| Calu-6 | 0.865 |
| HCC-366 | 0.947 |
| NCI-H1666 | 0.924 |
| NCI-H596 | 1.17 |
| LK-2 | 1.18 |

| Cell Line | relative viability |
| --- | --- |
| NCI-H2087 | 0.881 |
| NCI-H358 | 0.597 |
| NCI-H2170 | 0.808 |
| H3255 | 0.953 |
| COR-L23 | 0.932 |
| COR-L 105 | 1.14 |
| IA-LM | 0.764 |
| LOU-NH91 | 1.02 |
| ChaGo-K-1 | 0.956 |
| NCI-H1793 | 0.645 |
| A549 | 0.753 |
| NCI-H661 | 1.06 |
| NCI-H1299 | 1.07 |
| NCI-H1623 | 0.787 |
| NCI-H1563 | 0.919 |
| ABC-1 | 1.05 |
| NCI-H650 | 1.19 |

Same assay, conditions: first compound 0.8 µM

| Cell Line | relative viability |
| --- | --- |
| NCI-H2342 | 1.1 |
| NCI-H727 | 1.06 |
| NCI-H1650 | 1.08 |
| EBC-1 | 0.12 |
| NCI-H1703 | 0.349 |
| NCI-H1993 | 0.792 |
| SW 1573 | 0.979 |
| NCI-H838 | 1.06 |
| LCLC-103H | 0.818 |
| NCI-H520 | 0.932 |
| NCI-H2126 | 1.1 |
| EMC-BAC-2 | 1.21 |
| NCI-H2085 | 0.894 |
| Calu-6 | 0.907 |
| HCC-366 | 0.96 |
| NCI-H1666 | 0.98 |
| NCI-H596 | 0.809 |
| LK-2 | 1.6 |

| Cell Line | relative viability |
| --- | --- |
| NCI-H2087 | 1.13 |
| NCI-H358 | 0.718 |
| NCI-H2170 | 1.07 |
| H3255 | 1.01 |
| COR-L23 | 1.13 |
| COR-L 105 | 1.22 |
| IA-LM | 1.17 |
| LOU-NH91 | 0.957 |
| ChaGo-K-1 | 0.892 |
| NCI-H1793 | 0.754 |
| A549 | 0.932 |
| SW 900 | 0.806 |
| NCI-H661 | 1.05 |
| NCI-H1299 | 1.14 |
| NCI-H1623 | 0.891 |
| NCI-H1563 | 0.903 |
| ABC-1 | 0.972 |
| NCI-H650 | 1.02 |

Same assay, conditions: first compound 2.53 µM

| Cell Line | relative viability |
| --- | --- |
| NCI-H2342 | 1.09 |
| NCI-H727 | 0.778 |
| NCI-H1650 | 1.14 |
| EBC-1 | 0.102 |
| NCI-H1703 | 0.354 |
| NCI-H1993 | 0.736 |
| SW 1573 | 0.954 |
| NCI-H838 | 1.02 |
| LCLC-103H | 0.768 |
| NCI-H520 | 0.721 |
| NCI-H2126 | 1.25 |
| EMC-BAC-2 | 1.03 |
| NCI-H2085 | 0.924 |
| Calu-6 | 0.806 |
| HCC-366 | 0.943 |
| NCI-H1666 | 0.999 |
| NCI-H596 | 0.799 |
| LK-2 | 1.24 |

| Cell Line | relative viability |
| --- | --- |
| NCI-H2087 | 1.36 |
| NCI-H358 | 0.71 |
| NCI-H2170 | 1.04 |
| H3255 | 0.822 |
| COR-L23 | 1.01 |
| COR-L 105 | 0.892 |
| IA-LM | 1.12 |
| LOU-NH91 | 0.921 |
| ChaGo-K-1 | 0.869 |
| NCI-H1793 | 0.595 |
| A549 | 0.861 |
| SW 900 | 0.698 |
| NCI-H661 | 0.991 |
| NCI-H1299 | 1.05 |
| NCI-H1623 | 0.824 |
| NCI-H1563 | 0.929 |
| ABC-1 | 0.993 |
| NCI-H650 | 1.1 |

Same assay, conditions: first compound 8 µM

| Cell Line | relative viability |
| --- | --- |
| NCI-H2342 | 0.927 |
| NCI-H727 | 0.898 |
| NCI-H1650 | 0.894 |
| EBC-1 | 0.0993 |
| NCI-H1703 | 0.337 |
| NCI-H1993 | 0.713 |
| SW 1573 | 1.07 |
| NCI-H838 | 1.06 |
| LCLC-103H | 0.817 |
| NCI-H520 | 0.912 |
| NCI-H2126 | 1.11 |
| EMC-BAC-2 | 0.98 |
| NCI-H2085 | 1.01 |
| Calu-6 | 0.803 |
| HCC-366 | 0.915 |
| NCI-H1666 | 1.01 |
| NCI-H596 | 0.701 |

| Cell Line | relative viability |
| --- | --- |
| LK-2 | 1.09 |
| NCI-H2087 | 1.02 |
| NCI-H358 | 0.606 |
| NCI-H2170 | 0.888 |
| H3255 | 0.874 |
| COR-L23 | 0.889 |
| COR-L 105 | 1.02 |
| IA-LM | 0.775 |
| LOU-NH91 | 0.99 |
| ChaGo-K-1 | 0.802 |
| NCI-H1793 | 0.508 |
| A549 | 0.892 |
| SW 900 | 0.659 |
| NCI-H661 | 1.02 |
| NCI-H1299 | 1.05 |
| NCI-H1623 | 0.888 |
